# In patent EP3046573B1, “AMYLIN ANALOGUES” (Zealand Pharma A/S, priority 2013, dated 2015):
# Where two headings read alike, the source gives them in different places. Numbered stars: 1 amine (or outer) side, 2 acyl side, 3 side chain; on linkers, the order of the positions; unused ones are H or OH. Bridge positions count the residues as written; N and C are the ends. Square brackets hold non-standard residues; d marks the D form. Peptide text beside a SMILES is read from it. * marks the point of attachment. C20 diacid = O=C(O)CCCCCCCCCCCCCCCCCCC(=O)*; γGlu = O=C(O)[C@H](CCC(=O)[*:2])N[*:1]; NMeI = CC[C@H](C)[C@H](NC)C(=O)O; Sar = CNCC(=O)O
# Tests used:
# [1] = molecular target: T1, human calcitonin receptor (hCTR2) (Homo sapiens, UniProt P30988); assay: hCTR2 assay: induction of cAMP (AlphaScreen cAMP Assay kit) in COS7 cells expressing hCTR2; assay type: cell-based
# T1 construct: expressed in transfected cells
# T1 sequence (P30988 25-474): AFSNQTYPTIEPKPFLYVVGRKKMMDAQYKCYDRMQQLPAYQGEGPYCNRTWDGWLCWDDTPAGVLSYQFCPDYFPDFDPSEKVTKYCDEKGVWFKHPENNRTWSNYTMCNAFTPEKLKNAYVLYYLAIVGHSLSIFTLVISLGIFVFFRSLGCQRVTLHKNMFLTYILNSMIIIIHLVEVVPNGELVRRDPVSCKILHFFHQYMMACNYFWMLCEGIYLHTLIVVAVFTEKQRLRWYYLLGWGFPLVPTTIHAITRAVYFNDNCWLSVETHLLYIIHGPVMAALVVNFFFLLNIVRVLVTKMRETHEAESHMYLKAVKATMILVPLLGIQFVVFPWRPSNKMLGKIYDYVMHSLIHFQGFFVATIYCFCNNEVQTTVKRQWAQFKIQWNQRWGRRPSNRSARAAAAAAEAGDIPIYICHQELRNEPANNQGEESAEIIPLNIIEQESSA
# Method in brief: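 COS7 stable hCTR2 clone (RAMP-free); peptide dose-response 15 min 37° C in Tyrode pH 7.4 + 100 µM IBMX + 0.1% casein; lysis 10 min RT; AlphaScreen cAMP; 4PL fit.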
# [2] = molecular target: T2, human amylin receptor 3 (hAMYR3) consisting of hCTR2 co-expressed with human Receptor Activity Modifying Protein 3 (hRAMP3) (Homo sapiens, UniProt O60896+P30988); assay: hAMYR3 assay: induction of cAMP (AlphaScreen cAMP Assay kit) in COS7 cells expressing hAMYR3; assay type: cell-based; settings: cAMP induction in COS7 cells expressing hAMYR3; average of a minimum of 3 determinations; read-out: hAMY R3 EC50
# T2 construct: expressed in transfected cells
# T2 sequence (P30988 25-474): T1 sequence (P30988 25-474)
# T2 sequence (O60896 24-148 partner): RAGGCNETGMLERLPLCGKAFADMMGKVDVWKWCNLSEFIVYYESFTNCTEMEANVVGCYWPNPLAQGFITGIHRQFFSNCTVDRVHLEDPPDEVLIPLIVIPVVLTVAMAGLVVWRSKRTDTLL
# Method in brief: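 Stable COS7 clone co-expressing hCTR2 and hRAMP3, stimulated 15 min at 37° C with increasing peptide in Tyrode buffer pH 7.4 with 100 µM IBMX and 0.1% casein. cAMP measured by AlphaScreen after lysis; EC50 and % efficacy versus pramlintide from 4PL fit.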
# [3] = Solubility assessment (turbidity absorbance at 325 nm); assay type: physicochemical; settings: stock 2 mg/ml diluted 1:1, ambient temperature (typically 25°C), n=1; for Solubility, Acetate buffer pH 4: 100 mM acetate buffer pH 4.0; for Solubility, Acetate buffer pH 5: 100 mM acetate buffer pH 5.0; for Solubility, Histidine buffer pH 6: 100 mM histidine buffer pH 6.0; for Solubility, Histidine buffer pH 7: 100 mM histidine buffer pH 7.0; for Solubility, Phosphate buffer pH 6: 100 mM phosphate buffer pH 6.0; for Solubility, Phosphate buffer pH 7: 100 mM phosphate buffer pH 7.0; for Solubility, Phosphate buffer pH 7.5: 100 mM phosphate buffer pH7.5
# Method in brief: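 Stock 2 mg/ml peptide, H2O/HCl pH 2.5; 1:1 into 100 mM buffers: acetate pH 4.0/5.0, His pH 6.0/7.0, phosphate pH 6.0/7.0/7.5. A280 + A325, ~25°C, n=1. Soluble ≥ 1 mg/ml if A325 ≤ 0.02.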
smiles,measurement,setting,value
"CC[C@H](C)[C@@H](C(=O)N[C@@H](CC(C)C)C(=O)N[C@@H](CO)C(=O)N[C@@H](CO)C(=O)N[C@H](C(=O)N[C@@H](CCC(=O)O)C(=O)N[C@H](C(=O)NCC(=O)N[C@@H](CO)C(=O)N[C@@H](CCC(=O)O)C(=O)N[C@H](C(=O)N1CCC[C@H]1C(N)=O)[C@@H](C)O)C(C)C)[C@@H](C)O)N(C)C(=O)[C@H](C)NC(=O)CN(C)C(=O)[C@H](Cc1ccccc1)NC(=O)[C@H](CO)NC(=O)[C@H](CO)NC(=O)[C@H](CO)NC(=O)[C@H](CO)NC(=O)[C@H](CCCNC(=N)N)NC(=O)[C@H](Cc1c[nH]cn1)NC(=O)[C@H](CC(C)C)NC(=O)[C@H](Cc1ccccc1)NC(=O)[C@H](CCC(=O)O)NC(=O)[C@H](C)NC(=O)[C@H](CC(C)C)NC(=O)[C@H](CCCNC(=N)N)NC(=O)[C@H](C)NC(=O)[C@@H](NC(=O)[C@H](C)NC(=O)[C@@H]1CSSC[C@H](NC(=O)[C@H](CCCNC(=N)N)NC(=O)CC[C@H](NC(=O)CCCCCCCCCCCCCCCCCCC(=O)O)C(=O)O)C(=O)N2CCC[C@H]2C(=O)N[C@@H]([C@@H](C)O)C(=O)N[C@@H](C)C(=O)N[C@@H]([C@@H](C)O)C(=O)N1)[C@@H](C)O [Compound 147, [19CD]-isoGlu-RC()PTATC()ATARLAEFLHRSSSSF-Gly(Me)-A-Ile(Me)-LSSTEVGSETP-NH2] ({C20 diacid-γGlu}-RCPTATCATARLAEFLHRSSSSF[Sar]A[NMeI]LSSTEVGSETP-NH2; disulfide 2-7)",EC50,[1],160 pM
same,EC50,[2],160 pM
same,"Solubility, Acetate buffer pH 4",[3],SS (SS indicates solubility ≥ 1mg/ml)
same,"Solubility, Acetate buffer pH 5",[3],II (II indicates solubility ≤ 1 mg/ml)
same,"Solubility, Histidine buffer pH 6",[3],SS (SS indicates solubility ≥ 1mg/ml)
same,"Solubility, Histidine buffer pH 7",[3],SS (SS indicates solubility ≥ 1mg/ml)
same,"Solubility, Phosphate buffer pH 6",[3],SS (SS indicates solubility ≥ 1mg/ml)
same,"Solubility, Phosphate buffer pH 7",[3],SS (SS indicates solubility ≥ 1mg/ml)
same,"Solubility, Phosphate buffer pH 7.5",[3],SS (SS indicates solubility ≥ 1mg/ml)
"CC[C@H](C)[C@@H](C(=O)N[C@@H](CC(C)C)C(=O)N[C@@H](CO)C(=O)N[C@@H](CO)C(=O)N[C@H](C(=O)N[C@@H](CCC(=O)O)C(=O)N[C@H](C(=O)NCC(=O)N[C@@H](CO)C(=O)N[C@@H](CCC(=O)O)C(=O)N[C@H](C(=O)N1CCC[C@H]1C(N)=O)[C@@H](C)O)C(C)C)[C@@H](C)O)N(C)C(=O)[C@H](C)NC(=O)CN(C)C(=O)[C@H](Cc1ccccc1)NC(=O)[C@H](CO)NC(=O)[C@H](CO)NC(=O)[C@H](CO)NC(=O)[C@H](CO)NC(=O)[C@H](CCCNC(=N)N)NC(=O)[C@H](Cc1c[nH]cn1)NC(=O)[C@H](CC(C)C)NC(=O)[C@H](Cc1ccccc1)NC(=O)[C@H](CCC(=O)O)NC(=O)[C@H](C)NC(=O)[C@H](CC(C)C)NC(=O)[C@H](CCCNC(=N)N)NC(=O)[C@H](CC(=O)O)NC(=O)[C@@H](NC(=O)[C@H](C)NC(=O)[C@@H]1CSSC[C@H](NC(=O)[C@H](CCCNC(=N)N)NC(=O)CC[C@H](NC(=O)CCCCCCCCCCCCCCCCCCC(=O)O)C(=O)O)C(=O)N[C@@H](CO)C(=O)N[C@@H]([C@@H](C)O)C(=O)N[C@@H](C)C(=O)N[C@@H]([C@@H](C)O)C(=O)N1)[C@@H](C)O [Compound 148, [19CD]-isoGlu-RC()STATC()ATDRLAEFLHRSSSSF-Gly(Me)-A-Ile(Me)-LSSTEVGSETP-NH2] ({C20 diacid-γGlu}-RCSTATCATDRLAEFLHRSSSSF[Sar]A[NMeI]LSSTEVGSETP-NH2; disulfide 2-7)",EC50,"[1]; cAMP induction in COS7 cells expressing hCTR2, average of a minimum of 3 determinations, read-out: hCTR2 EC50",140 pM
same,EC50,[2],170 pM
same,"Solubility, Acetate buffer pH 4",[3],SS (SS indicates solubility ≥ 1mg/ml)
same,"Solubility, Acetate buffer pH 5",[3],SS (SS indicates solubility ≥ 1mg/ml)
same,"Solubility, Histidine buffer pH 6",[3],SS (SS indicates solubility ≥ 1mg/ml)
same,"Solubility, Histidine buffer pH 7",[3],SS (SS indicates solubility ≥ 1mg/ml)
same,"Solubility, Phosphate buffer pH 6",[3],SS (SS indicates solubility ≥ 1mg/ml)
same,"Solubility, Phosphate buffer pH 7",[3],SS (SS indicates solubility ≥ 1mg/ml)
same,"Solubility, Phosphate buffer pH 7.5",[3],SS (SS indicates solubility ≥ 1mg/ml)
"CC[C@H](C)[C@@H](C(=O)N[C@@H](CC(C)C)C(=O)N[C@@H](CO)C(=O)N[C@@H](CO)C(=O)N[C@H](C(=O)N[C@@H](CCC(=O)O)C(=O)N[C@H](C(=O)NCC(=O)N[C@@H](CO)C(=O)N[C@@H](CCC(=O)O)C(=O)N[C@H](C(=O)N1CCC[C@H]1C(N)=O)[C@@H](C)O)C(C)C)[C@@H](C)O)N(C)C(=O)[C@H](C)NC(=O)CN(C)C(=O)[C@H](Cc1ccccc1)NC(=O)[C@H](CO)NC(=O)[C@H](CO)NC(=O)[C@H](CO)NC(=O)[C@H](CO)NC(=O)[C@H](CCCNC(=N)N)NC(=O)[C@H](Cc1c[nH]cn1)NC(=O)[C@H](CC(C)C)NC(=O)[C@H](Cc1ccccc1)NC(=O)[C@H](CCC(=O)O)NC(=O)[C@H](C)NC(=O)[C@H](CC(C)C)NC(=O)[C@H](CCCNC(=N)N)NC(=O)[C@H](CC(=O)O)NC(=O)[C@@H](NC(=O)[C@H](C)NC(=O)[C@@H]1CSSC[C@H](NC(=O)[C@H](CCCNC(=N)N)NC(=O)CC[C@H](NC(=O)CCCCCCCCCCCCCCCCCCC(=O)O)C(=O)O)C(=O)N[C@@H](CC(=O)O)C(=O)N[C@@H]([C@@H](C)O)C(=O)N[C@@H](C)C(=O)N[C@@H]([C@@H](C)O)C(=O)N1)[C@@H](C)O [Compound 149, [19CD]-isoGlu-RC()DTATC()ATDRLAEFLHRSSSSF-Gly(Me)-A-Ile(Me)-LSSTEVGSETP-NH2] ({C20 diacid-γGlu}-RCDTATCATDRLAEFLHRSSSSF[Sar]A[NMeI]LSSTEVGSETP-NH2; disulfide 2-7)",EC50,[1],160 pM
same,EC50,[2],260 pM
same,"Solubility, Acetate buffer pH 4",[3],SS (SS indicates solubility ≥ 1mg/ml)
same,"Solubility, Acetate buffer pH 5",[3],SS (SS indicates solubility ≥ 1mg/ml)
same,"Solubility, Histidine buffer pH 6",[3],SS (SS indicates solubility ≥ 1mg/ml)
same,"Solubility, Histidine buffer pH 7",[3],SS (SS indicates solubility ≥ 1mg/ml)
same,"Solubility, Phosphate buffer pH 6",[3],SS (SS indicates solubility ≥ 1mg/ml)
same,"Solubility, Phosphate buffer pH 7",[3],SS (SS indicates solubility ≥ 1mg/ml)
same,"Solubility, Phosphate buffer pH 7.5",[3],SS (SS indicates solubility ≥ 1mg/ml)
"CC[C@H](C)[C@@H](C(=O)N[C@@H](CC(C)C)C(=O)N[C@@H](CO)C(=O)N[C@@H](CO)C(=O)N[C@H](C(=O)N[C@@H](CCC(=O)O)C(=O)N[C@H](C(=O)NCC(=O)N[C@@H](CO)C(=O)N[C@@H](CCC(=O)O)C(=O)N[C@H](C(=O)N1CCC[C@H]1C(N)=O)[C@@H](C)O)C(C)C)[C@@H](C)O)N(C)C(=O)[C@H](C)NC(=O)CN(C)C(=O)[C@H](Cc1ccccc1)NC(=O)[C@H](CO)NC(=O)[C@H](CO)NC(=O)[C@H](CO)NC(=O)[C@H](CO)NC(=O)[C@H](CCCNC(=N)N)NC(=O)[C@H](Cc1c[nH]cn1)NC(=O)[C@H](CC(C)C)NC(=O)[C@H](Cc1ccccc1)NC(=O)[C@H](CCC(=O)O)NC(=O)[C@H](C)NC(=O)[C@H](CC(C)C)NC(=O)[C@H](CCCNC(=N)N)NC(=O)[C@H](CC(=O)O)NC(=O)[C@@H](NC(=O)[C@H](C)NC(=O)[C@@H]1CSSC[C@H](NC(=O)[C@H](CCCNC(=N)N)NC(=O)CC[C@H](NC(=O)CCCCCCCCCCCCCCCCCCC(=O)O)C(=O)O)C(=O)N[C@@H](CCC(=O)O)C(=O)N[C@@H]([C@@H](C)O)C(=O)N[C@@H](C)C(=O)N[C@@H]([C@@H](C)O)C(=O)N1)[C@@H](C)O [Compound 150, [19CD]-isoGlu-RC()ETATC()ATDRLAEFLHRSSSSF-Gly(Me)-A-Ile(Me)-LSSTEVGSETP-NH2] ({C20 diacid-γGlu}-RCETATCATDRLAEFLHRSSSSF[Sar]A[NMeI]LSSTEVGSETP-NH2; disulfide 2-7)",EC50,[1],160 pM
same,EC50,[2],260 pM
same,"Solubility, Acetate buffer pH 4",[3],SS (SS indicates solubility ≥ 1mg/ml)
same,"Solubility, Acetate buffer pH 5",[3],SS (SS indicates solubility ≥ 1mg/ml)
same,"Solubility, Histidine buffer pH 6",[3],SS (SS indicates solubility ≥ 1mg/ml)
same,"Solubility, Histidine buffer pH 7",[3],SS (SS indicates solubility ≥ 1mg/ml)
same,"Solubility, Phosphate buffer pH 6",[3],SS (SS indicates solubility ≥ 1mg/ml)
same,"Solubility, Phosphate buffer pH 7",[3],SS (SS indicates solubility ≥ 1mg/ml)
same,"Solubility, Phosphate buffer pH 7.5",[3],SS (SS indicates solubility ≥ 1mg/ml)
